Results on 22 molecules are retold here after US20250282736A1, “SMALL MOLECULE MODULATORS OF HUMAN PREGNANE X RECEPTOR” (ST. JUDE CHILDREN'S RESEARCH HOSPITAL, priority 2022, published 2025).

Like-named read-outs stand apart in the source and are kept apart here.

Series [1] concerns the target T1, hPXR (Homo sapiens (Human), UniProt O75469). Description: hPXR binding assay. Conditions: for inhibition at 10 µM: read-out: Binding (% inhibition at 10 μM).
For series [2], the target named is T1, hPXR. Description: cell-based hPXR agonistic assay. The conditions noted are these: for Agonist (% activation at 10 μM): rifampicin at 10 μM as 100% activation, DMSO (0.3%) as 0%.
In series [3] the target is T1, hPXR. As to the kind of experiment: cell-based hPXR inverse agonistic assay. Conditions: for inhibition at 10 µM: read-out: Inverse agonist (% inhibition at 10 μM).
The target of series [4] is T1, hPXR. As to the kind of experiment: cell-based hPXR antagonistic assay. Conditions: for inhibition at 10 µM: read-out: Antagonist (% inhibition at 10 μM).
The mark [5] stands for this setting: read-out: Binding (IC50/μM), hPXR binding assay.

T1 sequence (O75469 whole entry): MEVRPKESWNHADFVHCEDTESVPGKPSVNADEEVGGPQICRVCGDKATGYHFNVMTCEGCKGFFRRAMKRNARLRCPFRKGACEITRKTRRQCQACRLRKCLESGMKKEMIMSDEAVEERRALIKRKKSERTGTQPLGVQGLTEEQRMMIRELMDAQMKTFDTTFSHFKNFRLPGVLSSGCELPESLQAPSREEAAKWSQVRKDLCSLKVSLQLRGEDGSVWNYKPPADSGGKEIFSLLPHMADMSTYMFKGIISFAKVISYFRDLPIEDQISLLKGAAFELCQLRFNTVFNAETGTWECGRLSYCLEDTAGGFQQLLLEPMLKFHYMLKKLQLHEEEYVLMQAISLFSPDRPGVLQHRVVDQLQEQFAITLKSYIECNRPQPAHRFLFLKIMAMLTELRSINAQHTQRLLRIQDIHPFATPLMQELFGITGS

For `COc1ccc(OC)c(-n2nnc(C(=O)Nc3ccccc3)c2C)c1` [A1, 1-(2,5-dimethoxyphenyl)-5-methyl-N-phenyl-1H-1,2,3-triazole-4-carboxamide], the IC50 on hPXR [1], at hPXR [3] and at hPXR [4] was greater than 30 µM each time. For the same molecule, on hPXR [2], the EC50 worked out at 24.5 ± 4.76 µM. The “Agonist (% activation at 10 μM)” value on hPXR [2] is reported as “(33 ± 2)%”.
Take `COc1ccc(OC)c(-n2nnc(C(=O)Nc3ccc(C)cc3)c2C)c1` [A2]: the inhibition (usually the drop in the measured response relative to a control, in per cent) at 10 µM at hPXR [1] came out at 22%. Further, the IC50 was 14 ± 4.79 µM at hPXR [1] (setting [5]), greater than 30 µM at hPXR [3] and greater than 30 µM on hPXR [4]. Also, the EC50 at hPXR [2] worked out at 2.44 ± 1.02 µM. The “Agonist (% activation at 10 μM)” value on hPXR [2] is given as “(32 ± 7)%”.
Take `COc1ccc(OC)c(-n2nnc(C(=O)Nc3cccc(C)c3)c2C)c1` [A3]: on hPXR [1], the inhibition at 10 µM worked out at 52%. In addition, the IC50 at hPXR [1] (setting [5]) was 10.9 ± 0.4 µM; on hPXR [3], greater than 30 µM; against hPXR [4], greater than 30 µM. Also, the “Agonist (% activation at 10 μM)” value on hPXR [2] was “(30 ± 3)%”. For the same molecule, on hPXR [2] (read-out: Agonist (EC50/μM), cell-based hPXR agonistic assay), the EC50 turned out to be 3.51 ± 0.86 µM.
In the case of `COc1ccc(OC)c(-n2nnc(C(=O)Nc3ccnc(C(C)(C)C)c3)c2C)c1` [A7], the IC50 on hPXR [1] was greater than 30 µM; at hPXR [3] it was 10.3 ± 3.25 µM; against hPXR [4], greater than 30 µM. The same molecule displayed an EC50 on hPXR [2] greater than 30 µM. The inhibition at 10 µM on hPXR [3] amounted to 80%.
Take `CCc1cccc(NC(=O)c2nnn(-c3cc(OC)ccc3OC)c2C)c1` [A8]: on hPXR [1], the inhibition at 10 µM stood at 49%. Further, the IC50 on hPXR [1] (setting [5]) is 16.1 ± 0.54 µM; on hPXR [3], greater than 30 µM; at hPXR [4] it was greater than 30 µM. On hPXR [2], this molecule returned an EC50 greater than 30 µM.
Turning to `COc1ccc(OC)c(-n2nnc(C(=O)Nc3cccc(N(C)C)c3)c2C)c1` [A10], the inhibition at 10 µM at hPXR [1] was found to be 49%. The figures for the IC50 at hPXR [1] (setting [5]), at hPXR [3] and against hPXR [4] were 10.5 ± 2.1 µM, greater than 30 µM and greater than 30 µM, respectively. Further, the EC50 on hPXR [2] is greater than 30 µM.
`COc1ccc(OC)c(-n2nnc(C(=O)Nc3cccc(-n4cccc4)c3)c2C)c1` [A11]: the inhibition at 10 µM at hPXR [1] turned out to be 24%. The IC50 at hPXR [1] (setting [5]) is 1.41 ± 0.69 µM; on hPXR [3], greater than 30 µM; against hPXR [4], greater than 30 µM. In addition, at hPXR [2], the EC50 was greater than 30 µM.
For the molecule `COc1ccc(OC)c(-n2nnc(C(=O)Nc3cccc(N4CCCCC4)c3)c2C)c1` [A12], the inhibition at 10 µM on hPXR [1] amounted to 50%; on hPXR [3] it was 36%. The IC50 on hPXR [1] (setting [5]) was 9.37 ± 3.52 µM; at hPXR [3] (read-out: Inverse agonist (IC50/μM), cell-based hPXR inverse agonistic assay) it was 25.8 ± 6.27 µM; on hPXR [4], greater than 30 µM. On hPXR [2], the EC50 is greater than 30 µM.
For `COc1ccc(OC)c(-n2nnc(C(=O)Nc3cccc(N4CCOCC4)c3)c2C)c1` [A14], the IC50 at hPXR [1], at hPXR [3] and against hPXR [4] was greater than 30 µM throughout. This molecule showed an EC50 at hPXR [2] greater than 30 µM.
`COc1ccc(OC)c(-n2nnc(C(=O)Nc3cccc(N4CCN(C)CC4)c3)c2C)c1` [A15]: the IC50 on hPXR [1], on hPXR [3] and at hPXR [4] was greater than 30 µM each time. This molecule also had an EC50 on hPXR [2] greater than 30 µM.
As to `COc1ccc(OC)c(-n2nnc(C(=O)Nc3ccc(N4CCN(C)CC4)cc3)c2C)c1` [A16], the IC50 on hPXR [1], on hPXR [3] and against hPXR [4] was greater than 30 µM each time. Moreover, on hPXR [2], the EC50 is greater than 30 µM.
`COc1ccc(OC)c(-n2nnc(C(=O)Nc3ccc(CN4CCN(C)CC4)cc3)c2C)c1` [A17]: the IC50 on hPXR [1], at hPXR [3] and on hPXR [4] was greater than 30 µM throughout. On hPXR [2], this molecule returned an EC50 greater than 30 µM.
Consider `CCOc1cc(NC(=O)c2nnn(-c3cc(OC)ccc3OC)c2C)nc(OCC)n1` [A18], for which the inhibition at 10 µM at hPXR [1] came out at 36%. Moreover, the IC50 at hPXR [1] (setting [5]) was 12.6 ± 3.09 µM; on hPXR [3], greater than 30 µM; against hPXR [4] it was greater than 30 µM. The same molecule returned an EC50 at hPXR [2] greater than 30 µM.
Turning to `COc1ccc(OC)c(-n2nnc(C(=O)Nc3cc(-n4cnc(C)c4)cc(C(F)(F)F)c3)c2C)c1` [A20], the IC50 on hPXR [1], at hPXR [3] and at hPXR [4] was greater than 30 µM each time. The EC50 at hPXR [2] was greater than 30 µM.
As for `COc1ccc(OC)c(-n2nnc(C(=O)Nc3ccc(CN4CCN(C)CC4)c(C(F)(F)F)c3)c2C)c1` [A21], the IC50 on hPXR [1], at hPXR [3] and on hPXR [4] was greater than 30 µM each time. At hPXR [2], the EC50 is greater than 30 µM.
Consider `COC(=O)c1ccc(NC(=O)c2nnn(-c3cc(OC)ccc3OC)c2C)cc1N1CCCC1` [A22], for which the IC50 on hPXR [1] is greater than 30 µM; at hPXR [3], 10.6 ± 8.63 µM; against hPXR [4], greater than 30 µM. Besides, the EC50 on hPXR [2] was greater than 30 µM. Besides, the inhibition at 10 µM at hPXR [3] was 129%.
Consider `COc1ccc(OC)c(-n2nnc(C(=O)Nc3ccc4c(c3)Nc3ccccc3CC4)c2C)c1` [A23], for which the IC50 was greater than 30 µM at hPXR [1], greater than 30 µM at hPXR [3] and 13.4 ± 0.12 µM against hPXR [4]. At hPXR [2], this molecule returned an EC50 greater than 30 µM. Also, the inhibition at 10 µM on hPXR [4] worked out at 23%.
For the molecule `COc1ccc(OC)c(-n2nnc(C(=O)Nc3cc(C)ccc3OC)c2C)c1` [A25], the inhibition at 10 µM was 73% at hPXR [1], 53% at hPXR [3] and 70% on hPXR [4]. Moreover, the results for the IC50 at hPXR [1] (setting [5]), on hPXR [3] and on hPXR [4] were 1.36 ± 0.23 µM, 20.6 ± 0.42 µM and 12 ± 2 µM, respectively. The same molecule gave an EC50 on hPXR [2] greater than 30 µM.
Regarding `COc1ccc(OC)c(-n2nnc(C(=O)Nc3cc(C(C)(C)C)ccc3O)c2C)c1` [B2, N-(5-(tert-butyl)-2-hydroxyphenyl)-1-(2,5-dimethoxyphenyl)-5-methyl-1H-1,2,3-triazole-4-carboxamide], at hPXR [1], the inhibition at 10 µM stood at 84%. In addition, the figures for the IC50 on hPXR [1] (setting [5]), at hPXR [3] and against hPXR [4] were 2.33 ± 0.43 µM, greater than 30 µM and greater than 30 µM, respectively. On hPXR [2], this molecule displayed an EC50 greater than 30 µM.
Turning to `CCC[C@H](CC)Oc1ccc(C(=O)N2CCN(C)CC2)cc1NC(=O)c1nnn(-c2cc(OC)ccc2OC)c1C` [M6, (S)-1-(2,5-Dimethoxyphenyl)-N-(2-(Hexan-3-Yloxy)-5-(4-Methylpiperazine-1-Carbonyl)Phenyl)-5-Methyl-1H-1,2,3-Triazole-4-Carboxamide], on hPXR [2], the EC50 is greater than 30 µM. For the same molecule, the values for the IC50 at hPXR [3] and against hPXR [4] were 0.011 ± 0.001 µM and 0.07 ± 0.01 µM, respectively. The values for the inhibition at 10 µM at hPXR [3] and on hPXR [4] were 112% and 108%, respectively.
On to `CCC[C@H](CC)Oc1ccc(C(=O)N2CCN(C(C)=O)CC2)cc1NC(=O)c1nnn(-c2cc(OC)ccc2OC)c1C` [M7, (S)—N-(5-(4-Acetylpiperazine-1-Carbonyl)-2-(Hexan-3-yloxy)Phenyl)-1-(2,5-Dimethoxyphenyl)-5-Methyl-1H-1,2,3-Triazole-4-Carboxamide], for which, on hPXR [2], the EC50 stood at 0.013 ± 0.003 µM and the “Agonist (% activation at 10 μM)” value is recorded as “(29 ± 4)%”. The molecule also came in with an IC50 on hPXR [3] greater than 30 µM. Besides, at hPXR [4], the IC50 turned out to be 0.13 ± 0.04 µM and the inhibition at 10 µM amounted to 76%.
For the molecule `CCC[C@H](CC)Oc1ccc(C(=O)Nc2ccc(N3CCN(C(C)=O)CC3)cc2)cc1NC(=O)c1nnn(-c2cc(OC)ccc2OC)c1C` [M8, (S)—N-(5-((4-(4-Acetylpiperazin-1-yl)Phenyl)Carbamoyl)-2-(Hexan-3-yloxy)Phenyl)-1-(2,5-Dimethoxyphenyl)-5-Methyl-1H-1,2,3-Triazole-4-Carboxamide], the EC50 on hPXR [2] is greater than 30 µM. On hPXR [3], the IC50 was 0.009 ± 0.002 µM and the inhibition at 10 µM came out at 93%. Further, on hPXR [4], the IC50 was 0.19 ± 0.07 µM and the inhibition at 10 µM was determined as 97%.
